Source: US20260191933A1, “PHARMACEUTICAL COMBINATIONS AND USES THEREOF” (The University of Melbourne, priority 2022, published 2026)

Legend:
[1] = tested on: 12-week-HFHS-diet-fed obese mice; assay: Intranasal PZ6005 in obese mice: body weight, tissue-specific adiposity, fat mass; type: in vivo, C57BL/6J mice; settings: for body weight lost at the end of the experiment: day 14
Experimental: (§1) Metabolic measurements were undertaken in the Melbourne Mouse Metabolic Phenotyping Platform (The University of Melbourne, Australia). Glucose tolerance tests were performed on 6 h fasted conscious mice respectively by injecting D-glucose (2 mg/g of lean body mass and 1 mg/g lean mass for db/db and HFHS+STZ mice) into the peritoneal cavity and measuring glucose in tail blood immediately before and at 15, 30, 45, 60, 90 and 120 min after injection using an Accu-Check glucometer (Roche, Germany). The areas under glucose excursion curves were determined and expressed as mmol/l×min. Fasted (12 h fast) plasma insulin or glucose levels were determined using a Rat/Mouse Insulin ELISA (EZRMI-13K, Merck Millipore, CA) or an Accu-Check glucometer respectively. The HOMA-IR was calculated using the equation [(glucose×insulin)/405]. Adiposity was measured using TD-NMR minispec (Bruker Optics Inc., Billerica, MA).

[2] = tested on: 12-week-HFHS-diet-fed obese mice; assay: Intranasal PZ6005 in obese mice: I.P. GTT, ITT, fasting glucose; type: in vivo, C57BL/6J mice
Experimental: as §1

[3] = tested on: ARC CSPG-ECM; assay: I.C.V. PZ6005 and/or S.C. liraglutide, 28-day treatment: ARC CSPG-ECM (WFA); type: in vivo, C57BL/6j mice; settings: PZ6005 100 μg/animal I.C.V. every other day first 14 days; liraglutide 200 μg/kg/day S.C. 28 days
Experimental: (§2) All image quantification was performed in Image J (NIH) software (NIH, MA). Raw images underwent background subtraction using a rolling ball algorithm to minimize background and any potential variance in tissue autofluorescence. To quantify area and intensity of the CSPG-ECM within each brain region (ARC, VMH or RSG cortex) images were thresholded and binarized to create a region of interest (ROI) mask of only the CSPG-ECM. For each brain area, CSPG-ECM ROI area (μm^2) and intensity (sum of all pixel intensities within the ROI) was calculated. This process was automated to minimise bias and to account for differences in brain nuclei size across multiple images. Brain nuclei were defined in accordance with the Paxinos and Franklin mouse brain atlas (http://labs.gaidi.ca/mouse-brain-atlas/). The area and intensity of CSPG-ECM within each region was normalised to the respective control.

[4] = tested on: 12-week HFHS fed obese mice; assay: I.C.V. fluorosamine in obese mice: glucose tolerance and hyperinsulinemic-euglycemic clamps; type: in vivo, C57BL/6J mice
Experimental: For hyperinsulinemic-euglycemic clamps, mice were anesthetised under isoflurane and the right jugular vein was catheterised for infusions, as described previously by Dodd et al., 2018. Catheters were attached to an implant button (BMSW25, RWD Life Sciences, Shenzhen, China). Implant buttons were capped allowing for group mousing of mice and catheters were kept patent by flushing daily with 40 μL saline containing 200 units/mL heparin. On the day of the experiment, food was removed at 7:00 A.M. After 3.5 h fasting, a primed (1 min, 1.25 uCi/min) continuous infusion (0.05 uCi/min) of [3-3H]glucose (NET331A001MC, PerkinElmer, MA) was administered to measure whole-body glucose turnover, as described previously by Dodd et al., 2018. […]
Metabolic measurements were undertaken in the Melbourne Mouse Metabolic Phenotyping Platform (The University of Melbourne, Australia). […] The areas under glucose excursion curves were determined and expressed as mmol/l×min. Fasted (12 h fast) plasma insulin or glucose levels were determined using a Rat/Mouse Insulin ELISA (EZRMI-13K, Merck Millipore, CA) or an Accu-Check glucometer respectively. The HOMA-IR was calculated using the equation [(glucose×insulin)/405]. Adiposity was measured using TD-NMR minispec (Bruker Optics Inc., Billerica, MA). […]

[5] = tested on: ARC CSPG-ECM; assay: Intranasal PZ6005 in obese mice: ARC CSPG-ECM expression (WFA immunostaining); type: in vivo, C57BL/6J mice; settings: for ARC neurofibrosis / area and intensity of ARC CSPG-ECM: obese mice, intranasal 14 days, 1 or 5 mg/animal/day
Experimental: as §2

[6] = tested on: insulin induced p-AKT signalling in the ARC; assay: I.C.V. fluorosamine: insulin-induced p-AKT in the ARC; type: in vivo, C57BL/6J mice; settings: following 10 days I.C.V. treatment
Experimental: Mice were injected intraperitoneally with vehicle (PBS) or insulin (3 mU/g, i.p., Actrapid, Nova Nordisk, Denmark) and mice were transcardially perfused (as described above) 15 min with 10% neutral buffered formalin. The brains were post-fixed for 16 h on a rocking platform at RT and then kept for two days in 30% sucrose in PBS to cryoprotect the tissue, before freezing on dry ice. 30 μm sections were cut in the coronal plane throughout the entire rostral-caudal extent of the hypothalamus. Sections were pre-treated for 10 mins in 0.3% glycine, washed in PBS-T and incubated for 10 min in 0.03% SDS. Sections were then blocked in 5% blocking buffer for 1 h at RT and incubated for 48 h with rabbit anti-p-AKT (Ser-473) (1:300; #4060, Cell Signaling Technology, Beverly, MA) in 1% blocking buffer. Sections were then incubated in 5% blocking buffer containing either goat anti-rabbit Alexa Fluor 647 (ab150083, Abcam, Cambridge, UK) or biotinylated goat anti-rabbit (BA-1000, Vector Laboratories, CA, no sodium azide in blocking buffer). […]

[7] = intranasal 1 mg treatment, 14 days
[8] = intranasal 1 mg/animal/day, 14 days

Compound: CC(=O)NC1C(OC(C)=O)OC(COC(C)=O)[C@@H](F)C1OC(C)=O (some centres unmarked) [PZ6005, per-O-acetylated-4-F-N-acetylglucosamine]
- whole-body metabolic improvements observed with intracerebroventricular delivery ([1]; diet-induced obese mice, intranasal 14 days): recapitulated
- mass of epiWAT, BAT and liver [1, 7]: decreased
- post-treatment fat mass decreased by, compared to the pre-treatment mass [1, 7]: 12.59±2.29%
- body weight lost at the end of the experiment ([1]; intranasal 1 mg treatment): 16.32±1.41%
- day from which weight was robustly decreased ([1]; intranasal 1 mg/animal/day): 7 days
- post-treatment fat mass diminished by, compared to the pre-treatment mass ([1]; intranasal 5 mg treatment, 14 days): 23.21±9.27%
- day from which weight was robustly decreased ([1]; intranasal 5 mg/animal/day): 3 days
- body weight lost at the end of the experiment ([1]; intranasal highest dose (5 mg)): 6.36±0.88%
- tissue mass ([1]; intranasal highest dose, 14 days): remarkedly reduced
- fasting (12 hrs) glucose level ([2]; both doses of intranasal treatment): Reduction
- insulin sensitivity (I.P. ITT) ([2]; intranasal 1 or 5 mg/animal/day, 4 hrs fasting): enhanced insulin sensitivity
- glucose tolerance (I.P. GTT) ([2]; intranasal 1 or 5 mg/animal/day, 6 hrs fasting, vs control littermates): better glucose tolerance
- ARC CSPG-ECM intensity reduced by, compared with the mice receiving liraglutide [3]: 22.65±7.851%
- CSPG-ECM area lower than liraglutide group [3]: 31.56±3.73%
- whole-body insulin sensitivity (GIR) ([4]; hyperinsulinemic-euglycemic clamps, weight matched obese mice, daily for 3 days I.C.V.): enhancement
- glucose tolerance ([4]; obese mice, I.C.V. for 10 days): improved glucose tolerance
- CSPG-ECM area lower than the controls [5, 8]: 13.54±1.03%
- CSPG-ECM intensity decreased by [5, 8]: 15.94±7.17%
- CSPG-ECM intensity reduced by ([5]; intranasal 5 mg/animal/day (highest dose), 14 days): 30.16±1.52%
- CSPG-ECM area lower than the controls ([5]; intranasal 5 mg/animal/day, 14 days): 13.59±4.09%
- ARC neurofibrosis / area and intensity of ARC CSPG-ECM [5]: robustly diminished
- ARC neurofibrosis / area and intensity of ARC CSPG-ECM ([5]; listed as fluorosamine): successfully attenuated
- insulin induced p-AKT signalling in the ARC [6]: enhanced
